Data published in ChEMBL document CHEMBL1143567, “Hierarchical database screenings for HIV-1 reverse transcriptase using a pharmacophore model, rigid docking, solvation docking, and MM-PB/SA” (J Med Chem, 2005).

System: Human immunodeficiency virus 1
Test: Concentration required to inhibit 50% viral production of human immunodeficiency virus type 1 (HIV-1-IIIB)
Type: functional, organism-based

Structure (SMILES) | IC50 [µM]
COc1ccc2c(c1)N(C(=O)OC(C)C)C(CSC)C(S)=N2 (stereo not given) | 0.006
CC1=C(C(=O)Nc2ccc(Cl)c(C(=O)OC(C)C)c2)SCCO1 | 0.042
CCC1=CC(NCc2nc3c(C)ccc(C)c3o2)C(=O)N=C1C (stereo not given) | 0.05
CC(=O)c1ccc(C)cc1NC(C(N)=O)c1c(Br)cccc1Br (stereo not given) | 0.42
Fc1cccc(Cl)c1CCNC(=S)Nc1nccs1 | 0.05
O=C1Nc2ccc(Cl)cc2[C@@](C#CC2CC2)(C(F)(F)F)N1 | 0.00036
O=C1Nc2ccc(Cl)cc2C(/C=C/C2CC2)(C(F)(F)F)N1 (stereo not given) | 0.0004
CCN1c2ncccc2-c2ncc(C)n2-c2ccc(OC)nc21 | 0.19
CC(C)OC(=O)c1cc(NC(=S)OC(C)C)ccc1Cl | 0.029
CCCCCC=C(c1cc(Br)c(OC)c(C(=O)OC)c1)c1cc(Br)c(OC)c(C(=O)OC)c1 | 16
Fc1cccc(F)c1CC/N=C(\S)Nc1ccc(Br)cn1 | 0.01
O=C(O)C1=CC(=C(c2ccc(O)c(C(=O)O)c2)c2ccc(O)c(C(=O)O)c2)C=CC1=O [AURINTRICARBOXYLIC ACID] | 5
CC(C)c1nc(COC(N)=O)n(Cc2ccncc2)c1Sc1cc(Cl)cc(Cl)c1 [CAPRAVIRINE] | 0.0031
CC(C)Nc1cccnc1N1CCN(C(=O)c2cc3cc(NS(C)(=O)=O)ccc3[nH]2)CC1 [DELAVIRDINE] | 1.1
O=C1Nc2ccc(Cl)cc2[C@@](C#CC2CC2)(C(F)(F)F)O1 [EFAVIRENZ] | 0.00293
CC(=O)c1ccc(C)cc1NC(C(N)=O)c1c(Cl)cccc1Cl (stereo not given) [LOVIRIDE] | 0.1
Cc1ccnc2c1NC(=O)c1cccnc1N2C1CC1 [NEVIRAPINE] | 0.2
CC(C)=CCN1Cc2cc(Cl)cc3nc(S)n(c23)CC1C (stereo not given) [TIBO] | 0.033

Second part, the molecule after the results:

IC50 [µM] | Structure (SMILES)
10 | CN1C(=O)c2ccccc2C1(N)c1ccccc1 (stereo not given)
1.4 | CC1Oc2c3c(c4c(-c5ccccc5)cc(=O)oc4c2C(O)C1C)OC(C)(C)C=C3 (stereo not given)
0.026 | CC(=O)c1ccccc1NC(C(N)=O)c1c(Cl)cccc1Cl (stereo not given)
1.6 | Cc1c(Sc2ccccc2)n(COCCO)c(=S)[nH]c1=O
1.3 | S=C(NCCc1ccccc1)Nc1nccs1
62 | C=CCN1Cc2cccc3[nH]c(=O)n(c23)CC1C (stereo not given)
0.016 | O=C1c2ccccc2C2(c3ccccc3)SCCN12 (stereo not given)
4.7 | Cc1c(O)nc(OC2CCCCC2)nc1Cc1ccccc1
0.006 | CC(C)c1c(Cc2ccccc2)n(COCc2ccccc2)c(=O)[nH]c1=O
0.033 | NC(=O)C(Nc1ccccc1[N+](=O)[O-])c1c(Cl)cccc1Cl (stereo not given)
0.4 | CCN1c2cc([N+](=O)[O-])ccc2N(C)C(=O)c2cccnc21
0.0027 | Cc1cc(C)cc(Cc2c(C(C)C)c(=O)[nH]c(=O)n2COCCO)c1
0.008 | CCOCn1c(Cc2ccccc2)c(C(C)C)c(=O)[nH]c1=O [EMIVIRINE]
7 | Cc1c(Sc2ccccc2)n(COCCO)c(=O)[nH]c1=O [HEPT]
0.003 | CC(C)=CCN1Cc2c(Cl)ccc3[nH]c(=S)n(c23)C[C@@H]1C [TIVIRAPINE]
0.02 | S=C(NCCc1ccccn1)Nc1ccc(Br)cn1 [TROVIRDINE]
0.009 | CC(C)=CCOc1cc(NC(=S)c2ccoc2C)ccc1Cl [UC 781]
